Assay results from publication PMC7205606, “Characterization of a toxin-antitoxin system in Mycobacterium tuberculosis suggests neutralization by phosphorylation as the antitoxicity mechanism” (Communications Biology, 2020).

How the values were obtained:
TakA (Rv1044), MBP-TakA = TakA (Rv1044), MBP-TakA (Mycobacterium tuberculosis, UniProt P96357)
TglT (Rv1045) = TglT (Rv1045) (Mycobacterium tuberculosis, UniProt P96356)
TglT (Rv1045), sequence (P96356 1-293 limits assumed): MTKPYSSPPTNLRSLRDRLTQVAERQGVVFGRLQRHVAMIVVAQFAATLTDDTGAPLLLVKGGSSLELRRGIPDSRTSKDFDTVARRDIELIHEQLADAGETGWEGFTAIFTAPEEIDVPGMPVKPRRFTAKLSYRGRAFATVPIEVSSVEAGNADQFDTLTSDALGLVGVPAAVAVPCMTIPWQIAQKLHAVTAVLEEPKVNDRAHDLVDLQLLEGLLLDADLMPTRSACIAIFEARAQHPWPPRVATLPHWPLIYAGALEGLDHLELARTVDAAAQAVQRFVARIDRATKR

TakA (Rv1044), MBP-TakA, sequence (P96357 entry or part of it): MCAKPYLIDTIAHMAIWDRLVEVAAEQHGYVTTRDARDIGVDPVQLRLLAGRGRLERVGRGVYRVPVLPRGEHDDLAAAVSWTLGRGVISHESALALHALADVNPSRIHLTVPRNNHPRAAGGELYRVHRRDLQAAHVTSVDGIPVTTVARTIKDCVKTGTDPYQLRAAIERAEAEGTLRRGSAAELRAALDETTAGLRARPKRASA

| SMILES | in vitro kinase assay, 32P transfer to TglT, SDS-PAGE (TakA (Rv1044), MBP-TakA) | native-PAGE autoradiography with unlabelled NTP competition (TglT (Rv1045)) |
| --- | --- | --- |
| Nc1ncnc2c1ncn2[C@@H]1O[C@H](COP(=O)(O)OP(=O)(O)OP(=O)(O)O)[C@@H](O)[C@H]1O [ATP] | When incubating MBP-TakA with TglT (Fig. 5a), we detected radioactively labeled TglT species in SDS-PAGE. |  |
| Nc1nc2c(ncn2[C@@H]2O[C@H](COP(=O)(O)OP(=O)(O)OP(=O)(O)O)[C@@H](O)[C@H]2O)c(=O)[nH]1 [GTP] |  | We conclude that TglT specifically binds GTP. |
